Usually Km stands for the substrate concentration at which the rate is half of its maximum. By IC50 is commonly meant the concentration needed to halve the response being measured. Usually Ki stands for the equilibrium dissociation constant of an inhibitor or competing ligand from its target.

The text below walks through data of paper PMC12735778, “Purification and Biochemical Characterization of Polyphenol Oxidase from Falcaria vulgaris Bernh” (Molecules, 2025).

Marks after values point to notes of the source that are not given here.

One experiment concerns PPO from Chinese parsley. On the set-up: method as in PMID 30263491. To be noted: substance as substrate; ref [50]; cited from earlier work.
For experiment [1], the system named is PPO from Sarali plum. On the set-up: method as in doi:10.1007/s11694-024-02663-y. To be noted: substance as substrate; ref [39]; cited from earlier work.
The test system of experiment [2] is PPO from persimmon fruits. On the set-up: method as in doi:10.1016/j.foodchem.2003.07.022. As to conditions: substance as substrate, ref [47], cited from earlier work; for Vmax: asterisked values.
A further experiment has as its system Medlar PPO. On the set-up: method as in doi:10.1016/S0308-8146(01)00359-4. As to conditions: substance as substrate, ref [51], cited from earlier work; for Vmax: asterisked values.
Experiment [3] relates to polyphenol oxidase (PPO) from sickleweed. As to the kind of experiment: Substrate kinetics of sickleweed PPO (Lineweaver-Burk). Type of experiment: biochemical, Falcaria vulgaris Bernh. As to conditions: substance as substrate; optimum pH and temperature. As for the experimental part: (§1) PPO activity was determined by measuring the increase in absorbance at 496 nm for 4-methylcatechol and 500 nm for catechol and DHPPA with a UV–Vis spectrophotometer. PPO activity was detected by the increment in absorbance in 1 min by adding 100 μL of the substrate (100 mM), 100 μL of 3-Methyl-2-benzothiazolinone hydrazone (MBTH, 10 mM), 20 μL of Dimethylformamide (DMF), 680 μL of 50 mM pH 5.0 acetate buffer, and finally 100 μL of the enzyme. The blank contains all solutions, excluding the enzyme. The enzyme unit is defined as the amount of the enzyme producing an absorbance increase of 0.001 per minute in 1 mL of the reaction mixture. The specific activity of PPO was defined as units per mg of protein [64].
To determine substrate specificity, catechol (0.2–20 mM), 4-methylcatechol (0.2–20 mM), and DHPPA (0.2–20 mM) concentrations were studied. Enzyme activity was carried out at optimum temperature and pH. The kinetic data were analyzed in terms of 1/activity (1/V) and 1/substrate concentration ([S]). The Michaelis-Menten constant (Km) and the maximum velocity (Vmax) were computed by plotting the Lineweaver-Burk graph. The catalytic efficiency ratio (Vmax/Km) was used as a criterion to evaluate substrate specificity.

A further experiment deals with PPO from butter lettuce. Also on record: method as in doi:10.1016/j.foodchem.2007.07.068. To be noted: substance as substrate; ref [38]; cited from earlier work.
Experiment [4] deals with PPO from Laccaria laccata (LacPPO). Also on record: method as in doi:10.1111/jfbc.12605. To be noted: substance as substrate; ref [43]; cited from earlier work.
The test system of a further experiment is PPO from tea leaf. On the set-up: method as in doi:10.1007/s11694-019-00264-8. As to conditions: substrate catechol; ref [40]; cited from earlier work.
The subject of experiment [5] is PPO from broccoli florets. Also on record: method as in doi:10.1016/j.foodchem.2007.05.012. As to conditions: substrate 4-methylcatechol; ref [61]; cited from earlier work.
The test system of the next experiment is PPO from purslane. Also on record: method as in doi:10.1590/1678-457x.03216. As to conditions: substrate catechol; ref [21]; cited from earlier work.
In experiment [6] the test system is polyphenol oxidase (PPO) from sickleweed. The experiment is described as follows: Inhibition of PPO purified from sickleweed, 4-methylcatechol substrate. It counts as biochemical, Falcaria vulgaris Bernh. To be noted: substrate 4-methylcatechol; for Inhibition type / Ki: Lineweaver-Burk plots; for IC50: optimum conditions. As for the experimental part: as §1
The common inhibitors of PPO were preferred to study the inhibitory effects on PPO activity. For the 4-methylcatechol substrate, sodium metabisulphite (0.005–0.1 mM), citric acid (5–60 mM), and ascorbic acid (0.005–0.04 mM) inhibitors were utilized to determine enzyme activities under optimum conditions. The half maximal inhibitory concentration (IC50), which halves the enzyme activity, was calculated using the graph of percentage residual activity (%) versus inhibitor concentration (enzyme activity in the absence of inhibitor was accepted as one hundred percent). Then, enzyme activities were studied at five substrate concentrations and three inhibitor concentrations under optimum conditions. The Lineweaver-Burk graphs were drawn by calculating 1/V and 1/[S] values with the obtained data. From these graphs, inhibition constant (Ki) values were calculated for each inhibitor, and the inhibition type was determined.

Experiment [7] deals with PPO from Sarali plum. Also on record: method as in doi:10.1007/s11694-024-02663-y. As to conditions: substrate 4-methylcatechol; ref [39]; cited from earlier work.

Regarding `Cc1ccc(O)c(O)c1` [4-Methylcatechol, 4-methylcatechol], the Michaelis-Menten constant (Km) in the experiment with PPO from Chinese parsley was 37.4 mM; in the experiment on PPO from Sarali plum [1] it was 4.75 ± 0.66 mM; in experiment [2], 14.6 mM; in the experiment with Medlar PPO, 7.5 mM; in experiment [3], 2 mM; with PPO from butter lettuce it was 1 ± 0.09 mM. In [4], the Km is 0.4 mM. Further, the Vmax with PPO from Chinese parsley was 1428.57 EU·mL^−1·min^−1; in the experiment with PPO from Sarali plum [1] it was 2333.33 ± 288.68 EU·mL^−1·min^−1; in experiment [2], 49.5 * μM/min; with Medlar PPO, 130 * μM/min; in [3] it was 5000 EU·mL^−1·min^−1; in the experiment with PPO from butter lettuce, 5405 ± 4 EU·mL^−1·min^−1.
As to `O=C1O[C@H]([C@@H](O)CO)C(O)=C1O` [Ascorbic acid, ascorbic acid], the values for the concentration for half-maximal inhibition (IC50) (in the experiment on PPO from tea leaf; in experiment [6]; with PPO from Sarali plum [7]) were 69.3 µM, 26 µM and 38 ± 1 µM, respectively. Moreover, the Inhibition type entry in the experiment with PPO from tea leaf is “Competitive”; in experiment [5] it was “Noncompetitive”; in the experiment on PPO from purslane, “Noncompetitive”; in experiment [6], “Competitive”; in the experiment on PPO from Sarali plum [7], “Competitive”. Further, the Ki was 32.7 µM at PPO from tea leaf; 88 µM in [5]; 360 µM on PPO from purslane; 10.1 µM in experiment [6]; 9.5 µM at PPO from Sarali plum [7].
In the case of `Oc1ccccc1O` [Catechol, catechol], the Km with PPO from Chinese parsley was 31 mM; with PPO from Sarali plum [1] it was 1.16 ± 0.12 mM; in experiment [2] it was 12.4 mM; in the experiment on Medlar PPO it was 5.7 mM; in experiment [3] it was 5 mM; in the experiment on PPO from butter lettuce, 3.2 ± 0.01 mM. Further, the Michaelis constant (Km) in [4] was 0.25 mM. Moreover, the Vmax is reported as 2000 EU·mL^−1·min^−1 with PPO from Chinese parsley; 914.14 ± 83.45 EU·mL^−1·min^−1 in the experiment on PPO from Sarali plum [1]; 55.2 * μM/min in experiment [2]; 88.0 * μM/min in the experiment with Medlar PPO; 10,000 EU·mL^−1·min^−1 in [3]; 4081 ± 8 EU·mL^−1·min^−1 with PPO from butter lettuce.
Take `O=C(O)CC(O)(CC(=O)O)C(=O)O` [Citric acid, citric acid]: the Inhibition type entry is reported as “Noncompetitive” in [5], “Uncompetitive” in the experiment with PPO from purslane and “Competitive” in experiment [6]. Moreover, the inhibition constant Ki in [5] is 74 µM; on PPO from purslane it was 4470 µM; in experiment [6] it was 8370 µM; in experiment [6] (listed as citric acid), 8730 µM. The molecule also showed an IC50 in [6] of 32000 µM.
Take `O=C(O)CCc1ccc(O)c(O)c1` [DHPPA, 3,4-Dihydroxyphenylpropionic acid]: the figures for the Vmax (in [2]; with Medlar PPO; in experiment [3]) were 17.2 * μM/min, 7.2 * μM/min and 14,285.71 EU·mL^−1·min^−1, respectively. The Km was 12.8 mM in experiment [2], 1.9 mM with Medlar PPO and 11.4 mM in [3].
As to `O=S(O)S(=O)(=O)O` [Sodium metabisulfite, sodium metabisulfite], in the experiment with PPO from tea leaf, the concentration for half-maximal inhibition (IC50) is 21.7 µM, the Inhibition type entry is reported as “Noncompetitive” and the Ki was 19.3 µM. Also, in experiment [6], the Inhibition type result was “Noncompetitive”, the affinity corresponds to a Ki of 23.7 µM and it took 27 µM to reach half-maximal inhibition (IC50).
